This is an account of results in US9499534B2, “Thiazole-substituted aminopyrimidines as spleen tyrosine kinase inhibitors” (priority 2013, dated 2016).

Each structure is given as a SMILES string.

The test concerns the target recombinant human GST-SYK (Homo sapiens (Human), UniProt P43405). As to the kind of experiment: Homogeneous Time-Resolved Fluorescence (HTRF) Assay for the Recombinant Human Syk Enzyme. The class given is biochemical. The conditions noted are these: GST-SYK 5 pM, ATP 25 μM, biotinylated substrate peptide 250 nM, HTRF signal. The procedure:
Homogeneous Time-Resolved Fluorescence (HTRF) Assay for the Recombinant Human Syk Enzyme
A recombinant GST-hSYK fusion protein was used to measure potency of compounds to inhibit human Syk activity. The recombinant human GST-SYK (Carna Biosciences #08-176) (5 pM final concentration) was incubated with various concentrations of the inhibitor diluted in DMSO (0.1% final concentration) for 10 minutes at room temperature in 15 mM Tris-HCl (pH 7.5), 0.01% tween 20, 2 mM DTT in 384 well plate format. To initiate the reaction the biotinylated substrate peptide (250 nM final concentration) that contains the phosphorylation site for Syk was added with magnesium (5 mM final concentration) and ATP (25 μM final concentration). Final volume of the reaction was 10 μL. Phosphorylation of the peptide was allowed to proceed for 45′ at room temperature. To quench the reaction and detect the phosphorylated product, 2 nM of a Europium-anti-phosphotyrosine antibody (Perkin Elmer #AD0161) and 70 nM SA-APC (Perkin-Elmer #CR130-100) were added together in 15 mM Tris pH 7.5, 40 mM EDTA, 0.01% tween 20. Final volume of the quenching solution was 10 μL.
The resulting HTRF signal was measured after 30 minutes on an EnVision (Perkin-Elmer) reader using a time-resolved fluorescence protocol. Table A below lists activities as IC50 values (nM) for representative compounds of the invention.
(In general: Time-resolved FRET reads energy transfer from a long-lived donor to a nearby acceptor.)

For orientation: IC50 means the point on the concentration scale where inhibition reaches its midpoint. As to `CC1(C)C[C@](O)(c2ncc(-c3cc(Nc4nccc(C(F)(F)F)n4)cc(-c4cncc(F)c4)c3)s2)CC[C@H]1C(=O)O` (single isomer, unassigned) [Example 2.15, (1R,4S or 1S,4R)-4-{5-[3-(5-fluoropyridin-3-yl)-5-{[4-(trifluoromethyl)pyrimidin-2-yl]amino}phenyl]-1,3-thiazol-2-yl}-4-hydroxy-2,2-dimethylcyclohexanecarboxylic acid], the IC50 was 3.22 nM.

Consider `Cc1cc(-c2cc(Nc3nccc(C(F)(F)F)n3)cc(-c3cnc([C@]4(O)CC[C@@H](C(=O)O)C(C)(C)C4)s3)c2)ccc1F` (single isomer, unassigned) [Example 2.16, (1R,4S or 1S,4R)-4-[5-(4′-fluoro-3′-methyl-5-{[4-(trifluoromethyl)pyrimidin-2-yl]amino}biphenyl-3-yl)-1,3-thiazol-2-yl]-4-hydroxy-2,2-dimethylcyclohexanecarboxylic acid], for which the IC50 was 153 nM.

In the case of `C[S+]([O-])c1ccccc1-c1cc(Nc2nccc(C(F)(F)F)n2)cc(-c2cnc([C@]3(O)CC[C@@H](C(=O)O)C(C)(C)C3)s2)c1` (single isomer, unassigned) [Example 2.17, (1R,4S or 1S,4R)-4-hydroxy-2,2-dimethyl-4-{5-[2′-(methylsulfinyl)-5-{[4-(trifluoromethyl)pyrimidin-2-yl]amino}biphenyl-3-yl]-1,3-thiazol-2-yl}cyclohexanecarboxylic acid], the IC50 is 15.3 nM.

In the case of `CC1(C)C[C@](O)(c2ncc(-c3cc(Nc4nccc(C(F)(F)F)n4)cc(-c4ccccc4Cl)c3)s2)CC[C@H]1C(=O)O` (single isomer, unassigned) [Example 2.18, (1R,4S or 1S,4R)-4-[5-(2′-chloro-5-{[4-(trifluoromethyl)pyrimidin-2-yl]amino}biphenyl-3-yl)-1,3-thiazol-2-yl]-4-hydroxy-2,2-dimethylcyclohexanecarboxylic acid], the IC50 came to 37.1 nM.

`CC1(C)C[C@](O)(c2ncc(-c3cc(Nc4nccc(C(F)(F)F)n4)cc(-c4ccc(N)nc4)c3)s2)CC[C@H]1C(=O)O` (single isomer, unassigned) [Example 2.19, (1R,4S or 1S,4R)-4-{5-[3-(6-aminopyridin-3-yl)-5-{[4-(trifluoromethyl)pyrimidin-2-yl]amino}phenyl]-1,3-thiazol-2-yl}-4-hydroxy-2,2-dimethylcyclohexanecarboxylic acid]: the IC50 stood at 1.29 nM.

Take `Cc1ccccc1-c1cc(Nc2nccc(C(F)(F)F)n2)cc(-c2cnc([C@]3(O)CC[C@@H](C(=O)O)C(C)(C)C3)s2)c1` (single isomer, unassigned) [Example 2.20, (1R,4S or 1S,4R)-4-hydroxy-2,2-dimethyl-4-[5-(2′-methyl-5-{[4-(trifluoromethyl)pyrimidin-2-yl]amino}biphenyl-3-yl)-1,3-thiazol-2-yl]cyclohexanecarboxylic acid]: the half-maximal inhibitory concentration (IC50) was found to be 70.4 nM.

On to `CC1(C)C[C@](O)(c2ncc(-c3cc(Nc4nccc(C(F)(F)F)n4)cc(C4=CCCCC4)c3)s2)CC[C@H]1C(=O)O` (single isomer, unassigned) [Example 2.21, (1R,4S or 1S,4R)-4-[5-(3-cyclohex-1-en-1-yl-5-{[4-(trifluoromethyl)pyrimidin-2-yl]amino}phenyl)-1,3-thiazol-2-yl]-4-hydroxy-2,2-dimethylcyclohexanecarboxylic acid], for which the IC50 was found to be 17.6 nM.

For the compound `Cc1ccc(F)c(-c2cc(Nc3nccc(C(F)(F)F)n3)cc(-c3cnc([C@]4(O)CC[C@@H](C(=O)O)C(C)(C)C4)s3)c2)c1` (single isomer, unassigned) [Example 2.22, (1R,4S or 1S,4R)-4-[5-(2′-fluoro-5′-methyl-5{[4-(trifluoromethyl)pyrimidin-2 yl]amino}biphenyl-3-yl)-1,3-thiazol-2-yl]-4-hydroxy-2,2-dimethylcyclohexanecarboxylic acid], the IC50 is 46 nM.

As for `Cc1ccsc1-c1cc(Nc2nccc(C(F)(F)F)n2)cc(-c2cnc([C@]3(O)CC[C@@H](C(=O)O)C(C)(C)C3)s2)c1` (single isomer, unassigned) [Example 2.23, (1R,4S or 1S,4R)-4-hydroxy-2,2-dimethyl-4-{5-[3-(3-methylthiophen-2-yl)-5-{[4-(trifluoromethyl)pyrimidin-2-yl]amino}phenyl]-1,3-thiazol-2-yl}cyclohexanecarboxylic acid], the IC50 is 10.1 nM.

For `Cc1cscc1-c1cc(Nc2nccc(C(F)(F)F)n2)cc(-c2cnc([C@]3(O)CC[C@@H](C(=O)O)C(C)(C)C3)s2)c1` (single isomer, unassigned) [Example 2.24, (1R,4S or 1S,4R)-4-hydroxy-2,2-dimethyl-4-{5-[3-(4-methylthiophen-3-yl)-5-{[4-(trifluoromethyl)pyrimidin-2-yl]amino}phenyl]-1,3-thiazol-2-yl}cyclohexanecarboxylic acid], the IC50 came to 24.6 nM.

As for `CC1(C)C[C@](O)(c2ncc(-c3cc(Nc4nccc(C(F)(F)F)n4)cc(-c4ccccc4F)c3)s2)CC[C@H]1C(=O)O` (single isomer, unassigned) [Example 2.25, (1R,4S or 1S,4R)-4-[5-(2′-fluoro-5-{[4-(trifluoromethyl)pyrimidin-2-yl]amino}biphenyl-3-yl)-1,3-thiazol-2-yl]-4-hydroxy-2,2-dimethylcyclohexanecarboxylic acid], the 50% inhibitory concentration (IC50) was determined as 35.2 nM.

For `CC/C=C\c1cc(Nc2nccc(C(F)(F)F)n2)cc(-c2cnc([C@]3(O)CC[C@@H](C(=O)O)C(C)(C)C3)s2)c1` (single isomer, unassigned) [Example 2.26, (1R,4S or 1S,4R)-4-[5-(3-[(1Z)-but-1-en-1-yl]-5-{[4-(trifluoromethyl)pyrimidin-2-yl]amino}phenyl)-1,3-thiazol-2-yl]-4-hydroxy-2,2-dimethylcyclohexanecarboxylic acid], the IC50 turned out to be 2.68 nM.

As to `CC1(C)C[C@](O)(c2ncc(-c3cc(/C=C\C4CC4)cc(Nc4nccc(C(F)(F)F)n4)c3)s2)CC[C@H]1C(=O)O` (single isomer, unassigned) [Example 2.27, (1R,4S or 1S,4R)-4-[5-(3-[(Z)-2-cyclopropylethenyl]-5-{[4-(trifluoromethyl)pyrimidin-2-yl]amino}phenyl)-1,3-thiazol-2-yl]-4-hydroxy-2,2-dimethylcyclohexanecarboxylic acid], the IC50 turned out to be 4.06 nM.

For `C/C=C(\C)c1cc(Nc2nccc(C(F)(F)F)n2)cc(-c2cnc([C@]3(O)CC[C@@H](C(=O)O)C(C)(C)C3)s2)c1` (single isomer, unassigned) [Example 2.28, (1R,4S or 1S,4R)-4-hydroxy-2,2-dimethyl-4-[5-(3-[(1E)-1-methylprop-1-en-1-yl]-5-{[4-(trifluoromethyl)pyrimidin-2-yl]amino}phenyl)-1,3-thiazol-2-yl]cyclohexanecarboxylic acid], the IC50 is 2.75 nM.

`CC(C)(C)/C=C\c1cc(Nc2nccc(C(F)(F)F)n2)cc(-c2cnc([C@]3(O)CC[C@@H](C(=O)O)C(C)(C)C3)s2)c1` (single isomer, unassigned) [Example 2.29, (1R,4S or 1S,4R)-4-[5-(3-[(1Z)-3,3-dimethylbut-1-en-1-yl]-5-{[4-(trifluoromethyl)pyrimidin-2-yl]amino}phenyl)-1,3-thiazol-2-yl]-4-hydroxy-2,2-dimethylcyclohexanecarboxylic acid]: the IC50 was 16.8 nM.

For the compound `C=C(C)c1cc(Nc2nccc(C(F)(F)F)n2)cc(-c2cnc([C@]3(O)CC[C@@H](C(=O)O)C(C)(C)C3)s2)c1` (single isomer, unassigned) [Example 2.30, (1R,4S or 1S,4R)-4-hydroxy-2,2-dimethyl-4-{5-[3-(1-methylethenyl)-5-{[4-(trifluoromethyl)pyrimidin-2-yl]amino}phenyl]-1,3-thiazol-2-yl}cyclohexanecarboxylic acid], the IC50 is 3.94 nM.

As for `CC1(C)C[C@@](O)(c2ncc(-c3cc(Nc4nccc(C(F)(F)F)n4)cc(-c4nccs4)c3)s2)CC[C@@H]1C(=O)O` (single isomer, unassigned) [Example 3.1, (1R,4S or 1S,4R)-4-Hydroxy-2,2-dimethyl-4-(5-(3-(thiazol-2-yl)-5-((4-(trifluoromethyl)pyrimidin-2-yl)amino)phenyl)thiazol-2-yl)cyclohexanecarboxylic acid], the IC50 worked out at 2.5 nM.

As for `CC1(C)C[C@](O)(c2ncc(-c3cc(Nc4nccc(C(F)(F)F)n4)cc(-c4cccs4)c3)s2)CC[C@H]1C(=O)O` (single isomer, unassigned) [Example 3.2, (1R,4S or 1S,4R)-4-hydroxy-2,2-dimethyl-4-[5-(3-thiophen-2-yl-5-{[4-(trifluoromethyl)pyrimidin-2-yl]amino}phenyl)-1,3-thiazol-2-yl]cyclohexanecarboxylic acid], the IC50 was determined as 12.4 nM.

Regarding `CC1(C)C[C@](O)(c2ncc(-c3cc(Nc4nccc(C(F)(F)F)n4)cc(-c4ccc(C#N)c(F)c4)c3)s2)CC[C@H]1C(=O)O` (single isomer, unassigned) [Example 3.3, (1R,4S or 1S,4R)-4-[5-(4′-cyano-3′-fluoro-5-{[4-(trifluoromethyl)pyrimidin-2-yl]amino}biphenyl-3-yl)-1,3-thiazol-2-yl]-4-hydroxy-2,2-dimethylcyclohexanecarboxylic acid], the IC50 stood at 34.8 nM.
